Laboratory results reported in ChEMBL document CHEMBL3351233, “Design, stereoselective synthesis, configurational stability and biological activity of 7-chloro-9-(furan-3-yl)-2,3,3a,4-tetrahydro-1H-benzo[e]pyrrolo[2,1-c][1,2,4]thiadiazine 5,5-dioxide” (Bioorg Med Chem, 2014).

Experiments:
Rattus norvegicus [1] = species on record: Rattus norvegicus; assay: Positive allosteric modulator activity at AMPA receptor in 7 days old Sprague-Dawley rat cerebellar granule neurons assessed as potentiation of kainite-evoked current at 10 uM by whole cell patch clamp technique
Rattus norvegicus [2] = species on record: Rattus norvegicus; assay: Positive allosteric modulator activity at AMPA receptor in 7 days old Sprague-Dawley rat cerebellar granule neurons assessed as potentiation of 5-Will-evoked current at 10 uM by whole cell patch clamp technique
[3] = Chemical stability of the compound in water/acetonitrile mobile phase by chromatography; format: physicochemical; conditions: buffer

Row | Activity (Rattus norvegicus [1]) | Activity (Rattus norvegicus [2]) | Stability [3] | Compound
1 | 8% | 10% | – | CC1Nc2ccc(Cl)cc2S(=O)(=O)N1 (stereo not drawn)
2 | 74% | 245% | – | O=S1(=O)N[C@@H]2CCCN2c2c(-c3ccoc3)cc(Cl)cc21
3 | 30% | – | Stable | O=S1(=O)NC2CCCN2c2c(-c3ccoc3)cc(Cl)cc21 (racemic)
4 | 12% | 122% | – | O=S1(=O)N[C@H]2CCCN2c2c(-c3ccoc3)cc(Cl)cc21
